Results published in patent EP1985629A1, “Pro-apoptotic molecules and therapeutic uses thereof” (UNIVERSITA DEGLI STUDI DI GENOVA, priority 2007, dated 2008).
Where a SMILES comes first, the peptide text is derived from it. [ ]: non-standard residue; d: D form. Aib = CC(C)(N)C(=O)O

Key:
Type in all cases: cell-based, human
tumour cell lines [1] = test: Propidium iodide (PI) uptake test, cell viability; conditions: treated for 4 days; data not shown
Description: PI uptake tests were performed to assess cell viability. Cells suspended in culture medium were incubated for 5 min with 3 µg/ml PI and analysed by flow cytometry. […] At least 10,000 events were acquired on a logarithmic scale from each sample.
Based on the results reported above we selected treatment concentrations of 5 µM and 10 µM for subsequent experiments. […] To evaluate whether the decreased cell growth was due to cell cycle arrest, cell death, or both, flow cytometry assays to assess cell viability and cell cycle behavior were performed. […] Flow cytometry measurements of DNA content and side scatter confirmed that the main cause of cell growth inhibition after 2 or 4 days of 072RB treatment at 5, 10 or 30 µM respectively, was cell death rather than cell cycle perturbation, as shown in Figure 3A for U937 cells. Three main cell populations can be observed in bivariate plots of side scatter (SSC) vs. DNA content (PI fluorescence), one with low SSC and normal DNA content (that accounts for cells "alive" in culture), another with high SSC and normal DNA content (cells undergoing "an early stage of apoptosis ") and another one with lower PI fluorescence (cells at "a late stage of apoptosis" and debris). The respective DNA histograms (projection of the dot plots on the x-axis) are reported for each plot. […]

tumour cell lines [2] = test: DNA flow cytometry (PI/SSC) for apoptosis in tumour cell lines; conditions: 4 days
Description: • Figure 1 Fluorescence Anisotropy Assay. Average anisotropy values: (open square) binding assay for increasing concentrations of Bcl-XL at a fixed concentration of fluorescent Bak-BH3 peptide. […] The error bars represent standard deviations observed from triplicate experiments. • Figure 2 072RB: cell growth effects. Panel A: Cell growth of U937 cell line treated for four days every 24 h at a 1 µM 072RB concentration and every 48 h at 3, 5, 10 and 30 µM 072RB concentrations. U937 controls at day 4, cell number: 350,000 ±50,000. Number of cells seeded at day 0: 20,000. Arrows indicate treatment time. […] All cells were counted in a Burker chamber and values are expressed as percentage of the untreated control cell number. Only living cells identified by trypan blue exclusion staining were counted. […] Flow cytometry measurements of DNA content (evaluated by propidium iodide (PI) fluorescence intensity) and physical cell side-scattering (evaluated by SSC) in U937 cells treated with Int and 072RB at 10 µM, twice each 48h. […] Three main cell populations can be observed in the bivariate PI/SSC plots, one with low SSC and normal DNA content (that accounts for "live" cells in culture), another with high SSC and normal DNA content (cells undergoing "early stage of apoptosis") and another one with lower PI fluorescence (cells at "late stage of apoptosis" and debris). […]

caspase 3 = test: Caspase 3 activation (FITC-DEVD-FMK, FACS analysis); conditions: for cells positive for activated caspase 3: 24 h; for cells with activated caspase 3: 72 h
Description: The activation of caspase-9 (mitochondrial apoptosis) and caspase-3 (activated downstream of caspase-9), was evaluated in cell lines (10^6 cells/well in a 24 wells plate) incubated with different concentrations of 072RB (1, 10 µM for 24h, 48h and 72h, in complete RPMI medium + 10% FCS at 37°C, using the caspase-9 and caspase-3 Detection Kit (Calbiochem, Darmstadt, Germany). The assay utilizes LEHD-FMK or DEVD-FMK conjugated to fluorescein-isothiocyanate (FITC) as caspase-9 or caspase-3 in situ marker. FITC-LEHD-FMK and FITC-DEVD-FMK are cell permeable, non toxic, and irreversibly bind only to activated caspase-9 or -3 in apoptotic cells. Samples were run on a flow cytometer (FACSort, Becton Dickinson) equipped with an argon ion laser exiting FITC at 488nm, At least 10^5 events were analysed for each sample using the CellQuest computer program. Data are expressed as Log green fluorescence intensity (a.u.) vs cell number. Calibration was assessed with CALIBRITE particles (Becton Dickinson) using the AutoCOMP computer program.
Cells were incubated for 24, 48 and 72 h with 072RB (10 µM) or Int (10 µM), together with FITC-LEDH-FMK or FITC-DEVD-FMK, to detect caspase 9 and caspase 3 activation, respectively (FACS analysis). […] Furthermore, caspase 3, a downstream substrate of caspase 9, was progressively activated at increasing incubation times with 072RB. After 24 h of incubation 30% of U937, 35% of Namalwa, 22% of Jurkat cells, respectively, were positive for activated caspase 3; after 72 h of incubation 70% of U937, 60% of Namalwa, and 35% of Jurkat cells, respectively, had activated caspase 3. On the contrary, a negligible fraction of cells incubated with the Int peptide (1-3%), a % similar to that observed in untreated cells, expressed activated caspase 3.

Row | Molecule | cell death (PI uptake test) (tumour cell lines [1]) | cell death (alive, early- and late-apoptotic fractions) (tumour cell lines [2]; three tumour cell lines, 5 to 10 µM) | cells positive for activated caspase 3 (caspase 3; Jurkat, 10 µM) [%] | cells with activated caspase 3 (caspase 3; Jurkat, 10 µM) [%] | cells positive for activated caspase 3 (caspase 3; Namalwa, 10 µM) [%] | cells with activated caspase 3 (caspase 3; Namalwa, 10 µM) [%] | cells positive for activated caspase 3 (caspase 3; U937, 10 µM) [%] | cells with activated caspase 3 (caspase 3; U937, 10 µM) [%] | cell death (alive, early- and late-apoptotic fractions) (tumour cell lines [2]; three cancer lines, 10 µM) | fraction of cells expressing activated caspase 3 (caspase 3; 10 µM, cell line and time not specified, similar to untreated cells)
1 | CC[C@H](C)[C@H](NC(=O)[C@H](CCCNC(=N)N)NC(=O)[C@H](CCCNC(=N)N)NC(=O)[C@H](CC(C)C)NC(=O)[C@H](CCC(=O)O)NC(=O)[C@H](CCC(N)=O)NC(=O)C(C)(C)NC(=O)[C@@H](NC(=O)[C@H](Cc1ccc(O)cc1)NC(=O)[C@@H](NC(=O)[C@H](CCC(=O)O)NC(=O)[C@@H]1CCCN1C(=O)[C@H](CCCNC(=N)N)NC(=O)[C@H](CCSC)NC(=O)[C@@H](N)CC(=O)O)[C@@H](C)CC)[C@@H](C)CC)C(=O)NCC(=O)N[C@@H](CC(=O)O)C(=O)N[C@@H](C)C(=O)N[C@@H](Cc1ccccc1)C(=O)N[C@@H](CC(N)=O)C(=O)NC(C)(C)C(=O)N[C@@H](Cc1ccc(O)cc1)C(=O)N[C@@H](CCCCN)C(=O)N[C@@H](CCCCN)C(=O)N[C@@H](Cc1c[nH]c2ccccc12)C(=O)N[C@@H](CCCCN)C(=O)N[C@@H](CCSC)C(=O)N[C@@H](CCCNC(=N)N)C(=O)N[C@@H](CCCNC(=N)N)C(=O)N[C@@H](CC(N)=O)C(=O)N1CCC[C@H]1C(=O)N[C@@H](Cc1ccccc1)C(=O)N[C@@H](Cc1c[nH]c2ccccc12)C(=O)N[C@H](C(=O)N[C@@H](CCCCN)C(=O)N[C@H](C(=O)N[C@@H](CCC(N)=O)C(=O)N[C@@H](CCCNC(=N)N)C(N)=O)[C@@H](C)CC)[C@@H](C)CC [Peptide 072RB] (H-DMRPEIYI[Aib]QELRRIGDAFN[Aib]YKKWKMRRNPFWIKIQR-NH2; N-terminus and C-terminus assumed) | dose-dependent cell death | Significant cell death | 22 | 35 | 35 | 60 | 30 | 70 | – | –
2 | KKWKMRRNPFWIKIQR [Int, internalisation tag, a modified Q50P 16 aa Antennapedia IIIrd α-helix, reference compound] | – | – | – | – | – | – | – | – | substantially inactive | 1-3%
